Experimental data published in US5707798A, “Identification of ligands by selective amplification of cells transfected with receptors” (priority 1994, dated 1998).
Blank lines part the entries; values can stand above or below the compound they belong to.

What was measured:
EP3 prostanoid receptor = target: T1, EP3 prostanoid receptor (Homo sapiens, UniProt P43115); assay type: cell-based; details: EP3, Table 2; read-out: Ligand EC50
T1 construct: expressed in transfected cells; host or cells: NIH 3T3 (mouse fibroblasts, ATCC CRL 1658)
T1 sequence (P43115 1-390): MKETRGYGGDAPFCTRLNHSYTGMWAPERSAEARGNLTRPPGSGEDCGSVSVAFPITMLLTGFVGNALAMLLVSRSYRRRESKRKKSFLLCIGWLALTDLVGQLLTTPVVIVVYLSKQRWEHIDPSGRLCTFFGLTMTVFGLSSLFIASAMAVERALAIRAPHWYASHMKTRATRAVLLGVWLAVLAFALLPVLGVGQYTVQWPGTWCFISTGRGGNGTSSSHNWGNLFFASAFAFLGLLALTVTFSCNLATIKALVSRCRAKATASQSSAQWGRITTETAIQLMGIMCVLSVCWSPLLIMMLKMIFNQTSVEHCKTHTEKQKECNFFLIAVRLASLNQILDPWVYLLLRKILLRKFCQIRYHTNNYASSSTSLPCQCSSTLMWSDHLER

[1] = tested on: certain alpha adrenergic receptors; details: cited from earlier work
[2] = target: T2, alpha 2 C4 adrenergic receptor (Homo sapiens, UniProt P18825); assay type: cell-based; details: α2-C4, Table 3; relative to other ligands at the receptor
T2 construct: expressed in transfected cells; host or cells: NIH 3T3 (mouse fibroblasts)
T2 sequence (P18825 1-462): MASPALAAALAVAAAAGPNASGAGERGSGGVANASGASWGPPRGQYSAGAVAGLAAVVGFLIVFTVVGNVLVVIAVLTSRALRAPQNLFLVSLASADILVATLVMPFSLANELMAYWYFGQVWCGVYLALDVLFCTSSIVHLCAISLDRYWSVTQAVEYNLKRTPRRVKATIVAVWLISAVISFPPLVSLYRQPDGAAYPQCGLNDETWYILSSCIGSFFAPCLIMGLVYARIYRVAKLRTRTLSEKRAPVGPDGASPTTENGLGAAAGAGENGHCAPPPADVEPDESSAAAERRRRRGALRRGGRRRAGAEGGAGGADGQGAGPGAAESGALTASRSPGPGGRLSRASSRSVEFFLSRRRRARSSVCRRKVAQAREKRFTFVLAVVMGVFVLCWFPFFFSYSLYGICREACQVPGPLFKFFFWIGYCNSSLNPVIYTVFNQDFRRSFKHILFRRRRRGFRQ

[3] = tested on: Muscarinic acetylcholine receptors that stimulate phospholipase c (m1, m3, m5); details: cited from earlier work
m5 muscarinic receptor [4] = target: T3, m5 muscarinic receptor (Homo sapiens, UniProt P08912); experiment: Focus induction in NIH 3T3 cells transfected with m5 DNA; assay type: cell-based; details: low concentrations
T3 construct: expressed in transfected cells; host or cells: NIH 3T3 (mouse fibroblasts)
T3 sequence (P08912 1-532): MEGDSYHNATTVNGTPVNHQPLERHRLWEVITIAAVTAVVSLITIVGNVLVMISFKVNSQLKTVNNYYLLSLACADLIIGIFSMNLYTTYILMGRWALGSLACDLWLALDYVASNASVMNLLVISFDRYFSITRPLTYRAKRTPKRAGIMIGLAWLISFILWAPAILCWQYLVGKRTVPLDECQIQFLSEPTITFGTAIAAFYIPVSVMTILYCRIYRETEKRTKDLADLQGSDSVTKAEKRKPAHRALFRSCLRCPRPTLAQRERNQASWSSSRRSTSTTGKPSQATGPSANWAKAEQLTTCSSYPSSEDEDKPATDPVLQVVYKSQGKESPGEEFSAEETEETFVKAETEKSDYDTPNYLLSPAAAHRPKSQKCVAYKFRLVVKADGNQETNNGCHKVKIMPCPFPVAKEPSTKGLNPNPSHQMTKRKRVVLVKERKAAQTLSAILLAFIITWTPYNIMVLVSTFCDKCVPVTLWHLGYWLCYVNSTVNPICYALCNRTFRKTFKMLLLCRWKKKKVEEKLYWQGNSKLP

m2 muscarinic receptor [5] = target: T4, m2 muscarinic receptor (Homo sapiens, UniProt P08172); experiment: β-galactosidase levels, m2 receptor in the absence of expressed G-protein; assay type: cell-based
T4 construct: expressed in transfected cells; host or cells: NIH 3T3 (mouse fibroblasts)
T4 sequence (P08172 1-466): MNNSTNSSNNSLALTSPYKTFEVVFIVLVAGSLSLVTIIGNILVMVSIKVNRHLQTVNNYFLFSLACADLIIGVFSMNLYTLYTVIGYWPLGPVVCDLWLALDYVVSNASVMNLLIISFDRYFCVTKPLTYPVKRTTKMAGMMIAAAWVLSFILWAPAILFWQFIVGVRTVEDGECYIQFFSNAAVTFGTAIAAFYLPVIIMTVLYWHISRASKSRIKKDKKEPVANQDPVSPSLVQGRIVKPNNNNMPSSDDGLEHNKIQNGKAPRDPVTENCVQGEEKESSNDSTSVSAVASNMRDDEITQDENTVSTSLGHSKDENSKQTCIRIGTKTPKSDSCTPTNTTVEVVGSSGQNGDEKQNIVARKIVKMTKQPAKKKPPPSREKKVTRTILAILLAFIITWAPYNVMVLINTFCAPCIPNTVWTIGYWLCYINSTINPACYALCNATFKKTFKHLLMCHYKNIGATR

m2 muscarinic receptor [6] = target: T4, m2 muscarinic receptor; experiment: cell-based; assay type: cell-based
NIH 3T3 cells = experiment: Amplification response in the absence of the indicated target receptor; assay type: cell-based, mouse; details: absence of the ligand's target receptor
Experimental: FIG. 16 illustrates the maximal ligand-induced responses of the indicated receptors, as assayed using cotransfected cultures using a Multiple Receptor Format similar to that described in FIG. 11. […] Cells were incubated in wells of a 96 well plate for 4 days with each ligand. Maximal responses were calculated by fitting the data to a model of a single mass-action site.

m5 muscarinic receptor [7] = target: T3, m5 muscarinic receptor; assay type: cell-based
m3 muscarinic receptor = m3 muscarinic receptor (Homo sapiens, UniProt P20309); experiment: cell-based
Sequence of m3 muscarinic receptor (P20309 whole entry): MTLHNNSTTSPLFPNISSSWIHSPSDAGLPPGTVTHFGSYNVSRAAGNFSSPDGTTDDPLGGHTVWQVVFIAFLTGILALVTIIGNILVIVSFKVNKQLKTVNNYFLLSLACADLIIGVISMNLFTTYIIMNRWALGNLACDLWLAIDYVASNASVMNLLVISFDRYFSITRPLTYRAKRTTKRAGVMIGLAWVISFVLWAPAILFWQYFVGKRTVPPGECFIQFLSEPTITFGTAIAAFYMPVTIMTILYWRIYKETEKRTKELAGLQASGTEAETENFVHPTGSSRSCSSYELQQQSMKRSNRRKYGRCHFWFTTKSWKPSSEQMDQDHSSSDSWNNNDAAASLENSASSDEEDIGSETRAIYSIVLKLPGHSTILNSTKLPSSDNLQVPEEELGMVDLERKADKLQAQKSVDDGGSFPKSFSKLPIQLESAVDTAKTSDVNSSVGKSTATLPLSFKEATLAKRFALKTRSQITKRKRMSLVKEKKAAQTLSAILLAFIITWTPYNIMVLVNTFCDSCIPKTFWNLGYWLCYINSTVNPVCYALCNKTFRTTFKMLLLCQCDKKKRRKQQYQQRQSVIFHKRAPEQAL

m2 muscarinic receptor [8] = target: T4, m2 muscarinic receptor; experiment: cell-based
m1 muscarinic receptor = target: T5, m1 muscarinic receptor (Homo sapiens, UniProt P11229); experiment: cell-based
T5 sequence (P11229 1-460): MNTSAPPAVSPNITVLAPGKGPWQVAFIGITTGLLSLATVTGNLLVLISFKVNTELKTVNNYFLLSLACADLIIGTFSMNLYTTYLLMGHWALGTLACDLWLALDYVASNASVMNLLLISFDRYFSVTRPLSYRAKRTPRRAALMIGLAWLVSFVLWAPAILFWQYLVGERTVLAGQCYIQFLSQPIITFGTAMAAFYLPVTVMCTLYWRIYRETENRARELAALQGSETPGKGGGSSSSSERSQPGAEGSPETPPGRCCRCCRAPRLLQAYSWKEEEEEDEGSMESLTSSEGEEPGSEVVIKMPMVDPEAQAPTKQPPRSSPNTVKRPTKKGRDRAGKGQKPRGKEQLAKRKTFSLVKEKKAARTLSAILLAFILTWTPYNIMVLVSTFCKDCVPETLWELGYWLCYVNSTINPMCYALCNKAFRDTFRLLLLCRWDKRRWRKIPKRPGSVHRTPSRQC

m5 muscarinic receptor [9] = target: T3, m5 muscarinic receptor; assay type: cell-based; remark: listed apart in the source
m4 muscarinic receptor = target: T6, m4 muscarinic receptor (Homo sapiens, UniProt P08173); experiment: cell-based
T6 sequence (P08173 1-479): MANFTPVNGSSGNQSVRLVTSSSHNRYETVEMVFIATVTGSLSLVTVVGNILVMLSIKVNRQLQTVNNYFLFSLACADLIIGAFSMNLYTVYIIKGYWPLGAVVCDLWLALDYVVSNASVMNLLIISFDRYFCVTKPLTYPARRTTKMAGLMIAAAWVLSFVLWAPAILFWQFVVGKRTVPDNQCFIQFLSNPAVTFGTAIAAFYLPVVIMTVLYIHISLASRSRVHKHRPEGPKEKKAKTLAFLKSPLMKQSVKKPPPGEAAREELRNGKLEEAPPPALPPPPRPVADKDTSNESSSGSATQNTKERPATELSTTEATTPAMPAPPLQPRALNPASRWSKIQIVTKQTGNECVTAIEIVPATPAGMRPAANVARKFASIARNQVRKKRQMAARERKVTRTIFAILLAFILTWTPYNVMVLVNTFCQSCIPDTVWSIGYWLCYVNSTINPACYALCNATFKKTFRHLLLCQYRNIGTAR

trk A receptor = details: Table 2
trk C receptor = target: trk C receptor; set-up: Rmax: key to the marks not given beside the values

EC50 (EP3 prostanoid receptor): 270 ± 190 nM
Compound: O=C(O)CCCCCC[C@H]1C(=O)CC[C@@H]1/C=C/[C@@H](O)COc1ccccc1 [MB28767]

Compound: NC[C@H](O)c1ccc(O)c(O)c1 [Norepinephrine]
growth stimulation [1]: stimulates
Max Response [2]: +

Compound: CN1[C@@H]2CC[C@H]1C[C@@H](OC(=O)C(CO)c1ccccc1)C2 (stereo partly shown) [atropine]
block of agonist-stimulated phospholipase c, mitogenesis and foci [3]: blocked

Compound: C[N+](C)(C)CCOC(N)=O [carbachol]
focus response (m5 muscarinic receptor [4]): robust ligand-dependent responses
effect on β-galactosidase levels (m2 muscarinic receptor [5]): no effect on β-galactosidase levels
time to plateau of β-galactosidase induction (m2 muscarinic receptor [6]; m2/q-i5): about five
induction of β-galactosidase levels (m2 muscarinic receptor [6]; m2/q-i5, time-course): significantly induce β-galactosidase levels
induction of responses (NIH 3T3 cells): unable to induce responses
time to plateau of β-galactosidase induction (m5 muscarinic receptor [7]; m5): about five
induction of β-galactosidase levels (m5 muscarinic receptor [7]; m5, time-course): significantly induce β-galactosidase levels

Compound: O[Si](CCCN1CCCCC1)(c1ccc(F)cc1)C1CCCCC1 (stereo not shown) [p-F-HHSiD]
Ki (m3 muscarinic receptor): 31.6 nM
Ki (m2 muscarinic receptor [8]): 501 nM
Ki (m1 muscarinic receptor): 251 nM
Ki (m5 muscarinic receptor [9]): 79.4 nM
Ki (m4 muscarinic receptor): 50.1 nM

Ligand EC50 (trk A receptor): > 1 µg/mL
Ligand EC50 (trk C receptor; Table 2): 0.0024 ± 0.0011 µg/mL
Rmax (trk C receptor; relative to other clones): ++++
Compound: NT3: related neutrotrophic factor NT3
